Paper PMC4060991, “The Human Orphan Nuclear Receptor Tailless (TLX, NR2E1) Is Druggable” (PLoS ONE, 2014)
Like-named read-outs stand apart in the source and are kept apart here.

What was measured:
human RXRα LBD = molecular target: T1, human RXRα LBD (Homo sapiens, UniProt P19793); assay: GAL4 DBD-RXRα LBD luciferase transactivation assay in HeLa cells; format: cell-based; settings: 10 µM, 24 h, alone or in competition with 9-cis retinoic acid 100 nM
T1 construct: expressed in transfected cells; host or cells: HeLa
T1 sequence (P19793 225-462): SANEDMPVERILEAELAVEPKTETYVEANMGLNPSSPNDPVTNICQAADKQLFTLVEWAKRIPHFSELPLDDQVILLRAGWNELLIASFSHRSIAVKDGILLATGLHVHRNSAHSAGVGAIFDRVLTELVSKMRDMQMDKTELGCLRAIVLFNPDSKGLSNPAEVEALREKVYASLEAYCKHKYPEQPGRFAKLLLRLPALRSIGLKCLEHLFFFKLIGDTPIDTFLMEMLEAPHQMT
Description: We cloned human RXRα LBD (residues 225–462) in the vector pBIND as described above. Transient co-transfections of HeLa cells with vectors encoding either Gal4DBD or Gal4 DBD-RXRα LBD fusion (both at 10 ng/well), pGL4.35 reporter gene (200 ng/well) and renilla luciferase gene (10 ng/well, internal control) were performed in batches of 10^5 cells seeded into 12-well tissue culture plates. The transfections were done using TransFectin Lipid Reagent (Biorad). Three hours after the transfections, cells were treated with either DMSO (0.1%, control) or compounds ccrp1, ccrp2 or ccrp3 at 10 µM, in the absence or the presence of 9-cis retinoic acid (RA, 100 nM). Following 24 h incubation, luciferase activities in each well were assessed as described above. Cells transfected with Gal4 DBD vector served as a control for RXR independent effects.

HeLa cells = assay: Toxicity observed in transfection experiments; format: cell-based, human; settings: tested at different concentrations
Description: (§1) HeLa cells were maintained in D-MEM High Glucose (Hyclone) supplemented with 10% charcoal:dextran stripped FBS (Hyclone) and 1x Pen/Strep antibiotics (Life Technologies). Transient transfections were carried out in batches on 100,000 cells seeded into 12-well tissue culture plates. The co-transfections were performed using the TransFectin Lipid reagent (Bio-Rad) with approximately 10 ng/well of Gal4 DBD (gift from Phuong Nguyen, Fletterick Laboratory, UCSF) or GAL4-TLX LBD, 10 ng/well of renilla luciferase gene (Promega) for internal control and 200 ng/well of pGL4.35 reporter gene (containing an upstream Gal4 Upstream Activator Sequence and the luciferase gene, Promega). Approximately, 3 h after transfections, cells were treated with compounds of interest at different concentrations, or solvent (DMSO, 0.1%) in DMEM containing no fetal bovine serum or antibiotics. After a 16-h incubation, luciferase activities were assessed using Dual Luciferase assay reagent (Promega). Luciferase activities were calculated by normalizing firefly luciferase to renilla luciferase signal. Normalized luciferase activities were then represented relative to control (DMSO-treated cells). Cells transfected with Gal4 DBD vector served as a control for TLX independent effects.

ERβ LBD = ERβ LBD (Homo sapiens, UniProt Q92731); assay: Gal4 DBD-ERβ LBD luciferase transactivation assay in HeLa cells; format: cell-based; parameters: vectors encoding either Gal4 DBD or Gal4 DBD-ERβ LBD fusion; expressed in transfected cells; host or cells: HeLa; settings: 10 µM, 24 h, alone or in competition with E2 100 nM
Sequence of ERβ LBD (Q92731 264-498 limits assumed): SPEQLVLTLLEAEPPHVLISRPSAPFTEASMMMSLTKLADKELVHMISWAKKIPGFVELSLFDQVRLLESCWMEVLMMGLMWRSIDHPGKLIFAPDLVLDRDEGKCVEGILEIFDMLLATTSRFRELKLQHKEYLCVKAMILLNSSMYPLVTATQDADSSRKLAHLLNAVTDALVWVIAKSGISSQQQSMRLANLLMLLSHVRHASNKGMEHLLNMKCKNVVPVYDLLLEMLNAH
Description: For ERβ, transient cotransfections of HeLa cells with vectors encoding either Gal4 DBD or Gal4 DBD-ERβ LBD fusion (gift from Dr. Stefan Andersson, University of Houston, deceased), both at 10 ng/well, constructs for Gal4-E1B promoter linked to a luciferase reporter gene (200 ng/well) and renilla luciferase gene (10 ng/well, internal control) were performed in batches of 10^5 cells seeded into 12-well tissue culture plates. At 24 h after the transfections, cells were treated with either DMSO (0.1%, control) or ccrp1; ccrp2 and ccrp3 at 10 µM, in the presence or absence of estradiol (E2, 100 nM), in the medium containing no fetal bovine serum. Following 24 h incubation, luciferase activities in each well were assessed as described above. Cells transfected with Gal4 DBD vector served as a control for ERβ independent effects.

TLX LBD = TLX LBD (Homo sapiens, UniProt Q9Y466); assay: GAL4-TLX LBD luciferase transactivation assay in HeLa cells; format: cell-based; parameters: expressed in transfected cells; host or cells: HeLa
Sequence of TLX LBD (Q9Y466 187-385): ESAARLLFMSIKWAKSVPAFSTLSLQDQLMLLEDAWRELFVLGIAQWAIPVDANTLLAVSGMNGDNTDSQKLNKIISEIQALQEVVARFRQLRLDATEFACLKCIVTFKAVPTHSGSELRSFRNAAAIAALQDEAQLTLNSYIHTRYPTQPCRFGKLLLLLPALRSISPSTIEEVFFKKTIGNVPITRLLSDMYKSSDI
Description: The luciferase reporter pGL4.35 [luc2P/9XGAL4UAS/Hygro] vector was obtained from Promega. pBIND-TLX LBD was fully sequenced (ACGT, Inc.).
as §1, with “Normalized luciferase activities were then represented relative to control (DMSO-treated cells).” left out
All measurements were performed in triplicates and repeated in three independent experiments. Prism 6 was used to calculate EC50.

[1] = HeLa cells, 16 h treatment, read-out: EC50 for enhancement of TLX transcriptional repression

| SMILES | effect on RXRα luciferase activity (human RXRα LBD) | toxicity (HeLa cells) | effect on ERβ luciferase activity (ERβ LBD) | EC50 (TLX LBD; [1]) | EC50 (TLX LBD) |
| --- | --- | --- | --- | --- | --- |
| CC(C)c1c(CN(C)C(C)Cc2ccccc2)n(C)n(-c2ccccc2)c1=O (stereo not drawn) [ccrp1, Famprofazone] | No effect on luciferase activity was detected | None of the three compounds displayed toxicity | No effect on luciferase activity was detected | 9.2 ± 1 µM |  |
| Cc1cc(C(=O)N2CCN(C(c3ccccc3)c3ccccc3)CC2)nn1C [ccrp2, 1-(1,5-dimethylpyrazole-3-carbonyl)-4-(diphenylmethyl)piperazine] | No effect on luciferase activity was detected | None of the three compounds displayed toxicity | No effect on luciferase activity was detected |  | 1 ± 0.3 µM |
| CC(=O)[C@H]1CC[C@H]2[C@@H]3C=CC4=CC(=O)CC[C@@]4(C)[C@@H]3CC[C@]12C [ccrp3, Dydrogesterone] | No effect on luciferase activity was detected | None of the three compounds displayed toxicity | No effect on luciferase activity was detected | 0.25 ± 0.1 µM |  |
